For experiment [1], the target named is T1, Ld6PGD (Leishmania donovani, UniProt Q18L02). The experiment is described as follows: Dose-response of gold(I)-based compounds against recombinant Ld6PGD (NADPH fluorescence). Type of experiment: biochemical. How it is done: (§1) Dose–response curves of gold(I)-based compounds against Ld6PGD were determined in 96-well plates using a Tecan Infinite M200 plate reader (Tecan, Maennedorf, Switzerland). An amount of 10 mM of each compound was dissolved in 100% DMSO and afterwards diluted in assay buffer to the required concentrations (highest final compound concentration of 100 μM). The DMSO tolerance of the enzymes was determined in advance by incubating the enzymes with up to 6% DMSO and determining their activity. Up to this concentration, no impairment of the enzymes’ catalytic activity was observed. In addition, a DMSO control was included in each measurement.
Different compound concentrations were added to one volume of enzyme mix (final concentrations: 50 mM Tris (pH 7.5), 0.005% Tween 20, 1 mg∙mL^−1 BSA, 0.7 nM Ld6PGD/0.7 nM Pf6PGD/0.9 nM Hs6PGD) and incubated for ten minutes. To start the reaction, one volume substrate mix (final concentrations: 50 mM Tris (pH 7.5), 0.005% Tween 20, 1 mg∙mL^−1 BSA, 3.3 mM MgCl2, 25/20/25 µM 6PG, 20 µM NADP^+ for Ld6PGD, Pf6PGD and Hs6PGD) was added to the wells. To increase the sensitivity of the assay, the increase of NADPH was monitored by measuring the fluorescence of NADPH at excitation 340 nm/emission 460 nm (ex340/em460). The substrate mix without 6PG served as a positive control (100% inhibition) and without the compound, but with DMSO as a negative control (100% activity). The assay contained both substrates either in saturation or at concentrations close to KM to facilitate the identification of competitive inhibitors. The reaction rate was calculated by dividing the relative fluorescence units (RFU) by time, and only a linear increase in absorbance/fluorescence was considered. IC50 values were calculated using GraphPad Prism 9.0 software and Microsoft Excel.

Experiment [2] deals with T1, Ld6PGD. Kind of experiment: Mode-of-inhibition study, substrate titration at constant auranofin concentrations (Michaelis-Menten). Format: biochemical. To be noted: for Vmax, NADP+ titrated: 6PG in saturation; for Vmax, 6PG titrated: NADP+ in saturation. The method, then: For the mechanistic characterization of auranofin, either NADP^+ (0–200 µM) or 6PG (0–250 µM) was titrated at different constant compound concentrations around the IC50 (0–30 µM), while keeping the second substrate in saturation (6PG: 300 µM, NADP^+: 200 µM). To determine the compound mode of inhibition, the relationship between initial velocity (v0) and substrate concentrations ([S]) at various constant compound concentrations was analyzed by plotting the data as Michaelis–Menten curves using GraphPad Prism; KM values and Vmax were calculated with GraphPad Prism as well.

The target of experiment [3] is T1, Ld6PGD. Kind of experiment: Reversibility of Ld6PGD inhibition (incubation at high concentration, then dilution). Type of experiment: biochemical. The method, then: In detail, 14 nM Ld6PGD was incubated with 30 µM auranofin for 10 min at room temperature. […] Afterwards, NADP^+ and 6PG were added to start the reaction, either at substrate saturation (300 µM 6PG, 200 µM NADP^+) or at concentrations close to KM (25 µM 6PG, 20 µM NADP^+). For comparison, controls containing either no inhibitor (100% activity) or inhibitor in the concentration remaining after dilution were prepared. NADPH production was monitored at ex340 nm using the Tecan Infinite M200 plate reader in 96-well plates. Specific activities were calculated from reaction rates. […] Inhibition was considered reversible if the activity of the sample was equal to the controls.

Experiment [4] concerns the target TR from Leishmania infantum (LiTR). Also noted: method as in PMID 21833767. Particulars: read-out: Ki against recombinant TR from Leishmania infantum (LiTR); cited from earlier work.
For a further experiment, the system named is Leishmania parasites. Set-up: method as in PMID 24328400, PMID 32463611, PMID 33139647. Particulars: trypanosomatid parasites; cited from earlier work.
The next experiment concerns the target Pf6PGD (Plasmodium falciparum, UniProt Q8IKT2). Kind of experiment: Dose-response against recombinant Pf6PGD (NADPH fluorescence). Format: biochemical. How it is done:
as §1
(§2) Different compound concentrations were added to one volume of enzyme mix (final concentrations: 50 mM Tris (pH 7.5), 0.005% Tween 20, 1 mg∙mL^−1 BSA, 0.7 nM Ld6PGD/0.7 nM Pf6PGD/0.9 nM Hs6PGD) and incubated for ten minutes. […] To increase the sensitivity of the assay, the increase of NADPH was monitored by measuring the fluorescence of NADPH at excitation 340 nm/emission 460 nm (ex340/em460). […] The reaction rate was calculated by dividing the relative fluorescence units (RFU) by time, and only a linear increase in absorbance/fluorescence was considered. IC50 values were calculated using GraphPad Prism 9.0 software and Microsoft Excel.

The target of the next experiment is T2, Hs6PGD (Homo sapiens, UniProt P52209).
T2 sequence (P52209 1-483): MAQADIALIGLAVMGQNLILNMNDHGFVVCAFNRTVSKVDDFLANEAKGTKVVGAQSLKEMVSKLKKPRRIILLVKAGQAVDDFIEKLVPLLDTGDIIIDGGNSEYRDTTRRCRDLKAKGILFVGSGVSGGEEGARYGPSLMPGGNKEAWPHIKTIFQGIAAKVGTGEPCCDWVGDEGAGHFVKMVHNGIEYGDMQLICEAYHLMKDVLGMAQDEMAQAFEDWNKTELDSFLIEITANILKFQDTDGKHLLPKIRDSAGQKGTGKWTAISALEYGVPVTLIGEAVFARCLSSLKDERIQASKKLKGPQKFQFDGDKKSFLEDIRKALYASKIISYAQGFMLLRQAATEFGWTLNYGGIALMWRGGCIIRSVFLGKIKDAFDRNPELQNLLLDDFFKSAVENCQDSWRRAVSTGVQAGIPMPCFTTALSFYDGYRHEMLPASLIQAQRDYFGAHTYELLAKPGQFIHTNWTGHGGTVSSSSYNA
Kind of experiment: Dose-response against recombinant Hs6PGD (NADPH fluorescence). Particulars: 25 µM 6PG, 20 µM NADP+, highest concentration 100 µM; read-out: IC50 for recombinant protein Hs6PGD. Format: biochemical. How it is done:
as §1, §2

Experiment [5] has as its target Leishmania donovani 6-phosphogluconate dehydrogenase wild type (Leishmania donovani). The experiment is described as follows: SEC; HiLoad 16/60 Superdex 200 in buffer A (500 mM NaCl, 50 mM Tris, pH 7.8); native, with 5 mM DTT, with 2 mM H2O2, with 0.2 mM 6PG, 0.2 mM NADP+ or 0.2 mM NADPH; varying protein concentrations; the dimer peak was the same under all conditions. A general note: In gel filtration, larger molecules generally elute earlier.

Where two headings read alike, the source gives them in different places. Where only a bound is given, the exact number is not on record here.

In the case of `CC(=O)OC[C@H]1O[C@@H]([S-])[C@H](OC(C)=O)[C@@H](OC(C)=O)[C@@H]1OC(C)=O.CCP(CC)CC.[Au+]` [Auranofin], the “Inhibition of Ld6PGD at 50 µM” value on Ld6PGD [1] (50 µM auranofin) was “completely inhibited”. Moreover, the “IC50 against Ld6PGD with NADP+ at saturation” value at Ld6PGD [1] (enzyme incubated with auranofin and NADP+ at saturation, compared with IC50 at KM) is listed as “unaffected”. On Ld6PGD [2] (6PG titrated, NADP+ 200 µM), the “Mode of inhibition against 6PG” value is “mixed type of inhibition”. Also, the “Mode of inhibition against NADP+” value at Ld6PGD [2] (NADP+ titrated, 6PG 300 µM) was “non-competitive inhibition”. Also, the “Vmax, NADP+ titrated” value came to 35.9 U/mg at Ld6PGD [2] (auranofin 1.875 µM); 34.45 U/mg at Ld6PGD [2] (auranofin 3.75 µM); 34.92 U/mg on Ld6PGD [2] (auranofin 7.5 µM); 31.07 U/mg on Ld6PGD [2] (auranofin 15 µM); 23.34 U/mg on Ld6PGD [2] (auranofin 30 µM). Moreover, the “Vmax, 6PG titrated” value was 36.43 U/mg at Ld6PGD [2] (auranofin 1.875 µM); 35.23 U/mg on Ld6PGD [2] (auranofin 3.75 µM); 29.59 U/mg at Ld6PGD [2] (auranofin 7.5 µM); 21.59 U/mg at Ld6PGD [2] (auranofin 15 µM); 7.71 U/mg at Ld6PGD [2] (auranofin 30 µM). The “Ld6PGD activity of undiluted sample” value at Ld6PGD [3] (30 µM auranofin (pre-dilution), substrates at KM) is given as “completely inhibited”. In addition, on Ld6PGD [3] (30 µM pre-dilution, diluted to 3 µM, 10 min each), the “Reversibility of Ld6PGD inhibition” value is reported as “irreversible”. Also, in experiment [4], the Ki (commonly a dissociation constant, usually derived from enzyme kinetics or from competition with a known ligand) was 0.155 ± 0.035 µM. In the experiment on Leishmania parasites, the “Concentrations at which increase in ROS and apoptotic-like cell death were observed” value is 10 to 50 µM.
In the case of `CC[P](CC)(CC)=[Au][S][C@@H]1O[C@H](COC(C)=O)[C@@H](OC(C)=O)[C@H](OC(C)=O)[C@H]1OC(C)=O` [Auranofin], the Ki at Ld6PGD [1] stood at 3.8 ± 0.4 µM. In addition, the IC50 (as a rule, the concentration that gives 50% inhibition) is 40.5 ± 1.9 µM on Ld6PGD [1] (IC50 against Ld6PGD with 6PG at saturation, enzyme incubated with auranofin and 6PG at saturation); 8.6 ± 1 µM at Ld6PGD [1] (IC50 for recombinant protein Ld6PGD, substrates close to KM (25 µM 6PG, 20 µM NADP+), 10 min incubation with enzyme); 20.1 ± 1.5 µM at Pf6PGD; > 100 µM on Hs6PGD.
In the case of `[Cl][Au].c1ccc(P(c2ccccc2)c2ccccc2)cc1` [Ph3PAuCl, chloro(triphenylphosphine)gold(I)], the IC50 on Ld6PGD [1] (substrates close to KM (25 µM 6PG, 20 µM NADP+), 10 min incubation with enzyme, read-out: IC50 for recombinant protein Ld6PGD) was determined as 2.1 ± 0.3 µM.
With “Leishmania donovani 6-phosphogluconate dehydrogenase wild type (enzyme)”, the stoichiometry N – broadly, the number of molecules, sites or subunits per partner or assembly – in experiment [5] is 2.
